# Where a name gives a salt, the structure may show the parent alone. Read-outs that look alike come from different tables or passages of the source.
# Key:
# [1] = test system: fibrin-induced microglia activation; test: Image-based assay of fibrin-induced microglia activation (HTS and dose response); assay type: cell-based, rat; settings: for inhibition at 10 µM: Rattus norvegicus, Microglia, read-out: Fibrin % inhibition
# [2] = test system: LPS-induced microglia activation; test: Image-based assay of LPS-induced microglia activation (HTS and dose response); assay type: cell-based, rat; settings: for inhibition at 10 µM: Rattus norvegicus, Microglia, read-out: LPS % inhibition
# [3] = test system: fibrin- and LPS-induced microglia activation; test: cells; assay type: cell-based, rat
# [4] = test system: primary rat microglia; test: Cell toxicity (dead cells, size <150 μm2) in LPS assay
# [5] = test system: primary rat microglia; test: Cell toxicity (dead cells, size <150 μm2) in coated fibrin (cFib) assay;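 note: share of dead cells sized under 150 µm2 at 10 µM in fibrin-stimulated microglia HTS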
# [6] = primary HTS, 10 μM, fibrin-stimulated primary microglia
# [7] = primary HTS, 10 μM, LPS-stimulated primary microglia
# [8] = primary HTS, 10 μM, LPS assay, dead cells size <150 μm2
# [9] = primary HTS, 10 μM, fibrin assay, dead cells size <150 μm2
# [10] = primary microglia HTS, fibrin stimulation, activation = cell size >800 μm2
# [11] = 48 h, primary microglia HTS, LPS stimulation, activation = cell size >800 μm2
# [12] = quadrant by fibrin and LPS inhibition in HTS of 1907 compounds
# [13] = primary microglia HTS, LPS stimulation, toxicity = cell size <150 μm2
# [14] = primary microglia HTS, fibrin stimulation, toxicity = cell size <150 μm2
# [15] = primary microglia HTS, 10 μM, fibrin-stimulated, cell size >800 μm^2 as marker of activation
# [16] = primary microglia HTS, 10 μM, LPS-stimulated, cell size >800 μm^2 as marker of activation
# [17] = HTS of 1907 compounds, quadrant by fibrin and LPS inhibition
# [18] = primary microglia HTS, 10 μM, LPS assay, cell size <150 μm^2 as marker of toxicity
# [19] = primary microglia HTS, 10 μM, fibrin assay, cell size <150 μm^2 as marker of toxicity
# [20] = primary microglia HTS, fibrin stimulation, increased cell size (>800 μm^2) as marker of activation
# [21] = 48 h, primary microglia HTS, LPS stimulation, increased cell size (>800 μm^2) as marker of activation
# [22] = primary microglia HTS, LPS stimulation, decreased size (<150 μm^2) as marker of toxicity
# [23] = primary microglia HTS, fibrin stimulation, decreased size (<150 μm^2) as marker of toxicity
structure (smiles),measurement,setting,value
Cc1ccc(S(=O)(=O)[N-]Cl)cc1.[Na+] [Chloramine-t],Fibrin % inhibition,[1]; [6],4%
same,LPS % inhibition,[2]; [7],11%
same,Quadrant (FIG. 5b),"[3]; primary HTS, 10 μM",Q4
same,LPS % cell toxicity,[4]; [8],0%
same,Fibrin % cell toxicity,[5]; [9],1%
CC(C)(Oc1ccc(C(=O)c2ccc(Cl)cc2)cc1)C(=O)O [Fenofibric Acid],inhibition at 10 µM,[1]; [10],6%
same,inhibition at 10 µM,[2]; [11],9%
same,Quadrant (FIG. 5b),[3]; [12],Q4
same,LPS % cell toxicity,[4]; [13],0%
same,Fibrin % cell toxicity,[5]; [14],1%
O=C1Nc2ccc(Cl)cc2C(c2ccccc2Cl)=NC1O (centres unmarked) [Lorazepam],inhibition at 10 µM,[1]; [10],-13%
same,inhibition at 10 µM,[2]; [11],-1%
same,Quadrant (FIG. 5b),[3]; [12],Q4
same,LPS % cell toxicity,[4]; [13],0%
same,Fibrin % cell toxicity,[5]; [14],1%
CC(C)(C)NC[C@H](O)COc1nsnc1N1CCOCC1 [Timolol Maleate],Fibrin % inhibition,[1]; [15],−4%
same,LPS % inhibition,[2]; [16],19%
same,Quadrant (FIG. 5b),[3]; [17],Q4
same,LPS % cell toxicity,[4]; [18],0%
same,Fibrin % cell toxicity,[5]; [19],0%
CCOc1nc2cccc(C(=O)OC(C)OC(=O)OC3CCCCC3)c2n1Cc1ccc(-c2ccccc2-c2nn[nH]n2)cc1 (centres unmarked) [Candesartan Cilextil],Fibrin % inhibition,[1]; [6],−5%
same,LPS % inhibition,[2]; [7],10%
same,Quadrant (FIG. 5b),"[3]; primary HTS, 10 μM",Q4
same,LPS % cell toxicity,[4]; [8],0%
same,Fibrin % cell toxicity,[5]; [9],1%
CCCc1nc(C(C)(C)O)c(C(=O)O)n1Cc1ccc(-c2ccccc2-c2nnn[nH]2)cc1 [Olmesartan],inhibition at 10 µM,[1]; [20],-13%
same,inhibition at 10 µM,[2]; [21],18%
same,Quadrant (FIG. 5b),[3]; [12],Q4
same,LPS % cell toxicity,[4]; [22],0%
same,Fibrin % cell toxicity,[5]; [23],0%
O=C(O)CCC(=O)Nc1ccc(S(=O)(=O)Nc2nccs2)cc1 [Succinylsulfathiazole],inhibition at 10 µM,[1]; [15],15%
same,inhibition at 10 µM,[2]; [16],16%
same,Quadrant (FIG. 5b),[3]; [17],Q4
same,LPS % cell toxicity,[4]; [18],1%
same,Fibrin % cell toxicity,[5]; [19],1%
COc1ccccc1Oc1c(NS(=O)(=O)c2ccc(C(C)(C)C)cc2)nc(-c2ncccn2)nc1OCCO [Bosentan],inhibition at 10 µM,[1]; [6],-14%
same,inhibition at 10 µM,[2]; [7],10%
same,Quadrant (FIG. 5b),"[3]; primary HTS, 10 μM",Q4
same,LPS % cell toxicity,[4]; [8],0%
same,Fibrin % cell toxicity,[5]; [9],1%
CC(=O)N(CC(O)CN(C(C)=O)c1c(I)c(C(=O)NCC(O)CO)c(I)c(C(=O)NCC(O)CO)c1I)c1c(I)c(C(=O)NCC(O)CO)c(I)c(C(=O)NCC(O)CO)c1I (centres unmarked) [Iodixanol],inhibition at 10 µM,[1]; [10],-15%
same,inhibition at 10 µM,[2]; [11],10%
same,Quadrant (FIG. 5b),[3]; [12],Q4
same,LPS % cell toxicity,[4]; [13],0%
same,Fibrin % cell toxicity,[5]; [14],0%
CN1CCC(=C2c3ccccc3CC(=O)c3sccc32)CC1 [Ketotifen],inhibition at 10 µM,[1]; [10],1%
same,inhibition at 10 µM,[2]; [11],15%
same,Quadrant (FIG. 5b),[3]; [12],Q4
same,LPS % cell toxicity,[4]; [13],0%
same,Fibrin % cell toxicity,[5]; [14],1%
OC[C@H]1O[C@@H](O[C@@H]2[C@@H](CO)OC(O)(CO)[C@H]2O)[C@H](O)[C@@H](O)[C@H]1O (mixture of isomers) [Lactulose],inhibition at 10 µM,[1]; [10],-14%
same,inhibition at 10 µM,[2]; [11],4%
same,Quadrant (FIG. 5b),[3]; [12],Q4
same,LPS % cell toxicity,[4]; [13],0%
same,Fibrin % cell toxicity,[5]; [14],0%
CCCCC(CC)CNC(=N)NC(=N)NCCCCCCNC(=N)NC(=N)NCC(CC)CCCC (centres unmarked) [Alexidine Hydrochloride],inhibition at 10 µM,[1]; [20],108%
same,inhibition at 10 µM,[2]; [21],120%
same,Quadrant (FIG. 5b),[3]; [12],Q2
same,LPS % cell toxicity,[4]; [22],9%
same,Fibrin % cell toxicity,[5]; [23],5%
Oc1c(Br)cc(Br)c2cccnc12 [Broxyquinoline],inhibition at 10 µM,[1]; [6],-25%
same,inhibition at 10 µM,[2]; [7],8%
same,Quadrant (FIG. 5b),"[3]; primary HTS, 10 μM",Q4
same,LPS % cell toxicity,[4]; [8],0%
same,Fibrin % cell toxicity,[5]; [9],0%
NCCC(O)(P(=O)(O)O)P(=O)(O)O [Pamidronate],inhibition at 10 µM,[1]; [20],0%
same,inhibition at 10 µM,[2]; [21],-5%
same,Quadrant (FIG. 5b),[3]; [12],Q4
same,LPS % cell toxicity,[4]; [22],0%
same,Fibrin % cell toxicity,[5]; [23],1%
CN1[C@@H]2CC[C@H]1C[C@@H](OC(=O)c1c[nH]c3ccccc13)C2 [Tropisetron],inhibition at 10 µM,[1]; [15],-28%
same,inhibition at 10 µM,[2]; [16],14%
same,Quadrant (FIG. 5b),[3]; [17],Q4
same,LPS % cell toxicity,[4]; [18],0%
same,Fibrin % cell toxicity,[5]; [19],0%
CCN(CC)CCOCCOC(=O)C(CC)(CC)c1ccccc1 [Oxeladin],inhibition at 10 µM,[1]; [20],-27%
same,inhibition at 10 µM,[2]; [21],6%
same,Quadrant (FIG. 5b),[3]; [12],Q4
same,LPS % cell toxicity,[4]; [22],0%
same,Fibrin % cell toxicity,[5]; [23],1%
Nc1ncnc(Nc2ccc(Cl)cc2)n1 [Chlorazanil Hydrochloride],inhibition at 10 µM,[1]; [6],0%
same,inhibition at 10 µM,[2]; [7],3%
same,Quadrant (FIG. 5b),"[3]; primary HTS, 10 μM",Q4
same,LPS % cell toxicity,[4]; [8],0%
same,Fibrin % cell toxicity,[5]; [9],1%
S=C=Nc1ccc(N=C=S)cc1 [Bitoscanate],inhibition at 10 µM,[1]; [6],-9%
same,inhibition at 10 µM,[2]; [7],3%
same,Quadrant (FIG. 5b),"[3]; primary HTS, 10 μM",Q4
same,LPS % cell toxicity,[4]; [8],1%
same,Fibrin % cell toxicity,[5]; [9],1%
O=[N+]([O-])c1ccc(O)c2ncccc12 [Nitroxoline],inhibition at 10 µM,[1]; [20],-5%
same,inhibition at 10 µM,[2]; [21],-6%
same,Quadrant (FIG. 5b),[3]; [12],Q4
same,LPS % cell toxicity,[4]; [22],0%
same,Fibrin % cell toxicity,[5]; [23],1%
Oc1noc2c1CCNC2 [Gaboxadol],inhibition at 10 µM,[1]; [10],-43%
same,inhibition at 10 µM,[2]; [11],3%
same,Quadrant (FIG. 5b),[3]; [12],Q4
same,LPS % cell toxicity,[4]; [13],0%
same,Fibrin % cell toxicity,[5]; [14],0%
N[C@H]1CONC1=O [Levcycloserine],inhibition at 10 µM,[1]; [10],2%
same,inhibition at 10 µM,[2]; [11],12%
same,Quadrant (FIG. 5b),[3]; [12],Q4
same,LPS % cell toxicity,[4]; [13],0%
same,Fibrin % cell toxicity,[5]; [14],1%
C[C@]12C/C(=C/O)C(=O)C[C@@H]1CC[C@@H]1[C@@H]2CC[C@@]2(C)[C@H]1CC[C@]2(C)O [Oxymetholone],inhibition at 10 µM,[1]; [20],-18%
same,inhibition at 10 µM,[2]; [21],-7%
same,Quadrant (FIG. 5b),[3]; [12],Q4
same,LPS % cell toxicity,[4]; [22],0%
same,Fibrin % cell toxicity,[5]; [23],1%
CCOC(=O)C(C)(C)Oc1ccc(Cl)cc1 [Clofibrate],inhibition at 10 µM,[1]; [6],-20%
same,inhibition at 10 µM,[2]; [7],18%
same,Quadrant (FIG. 5b),"[3]; primary HTS, 10 μM",Q4
same,LPS % cell toxicity,[4]; [8],1%
same,Fibrin % cell toxicity,[5]; [9],0%
Cc1cc(=O)[nH]c(=S)[nH]1 [Methylthiouracil],inhibition at 10 µM,[1]; [20],31%
same,inhibition at 10 µM,[2]; [21],16%
same,Quadrant (FIG. 5b),[3]; [12],Q4
same,LPS % cell toxicity,[4]; [22],0%
same,Fibrin % cell toxicity,[5]; [23],0%
CCCCOc1cc(C(=O)OCCN(CC)CC)ccc1N [Oxybuprocaine],inhibition at 10 µM,[1]; [20],7%
same,inhibition at 10 µM,[2]; [21],11%
same,Quadrant (FIG. 5b),[3]; [12],Q4
same,LPS % cell toxicity,[4]; [22],0%
same,Fibrin % cell toxicity,[5]; [23],1%
CCN[C@@H]1C[C@H](N)[C@@H](O[C@H]2OC(CN)=CC[C@H]2N)[C@H](O)[C@H]1O[C@H]1OC[C@](C)(O)[C@H](NC)[C@H]1O.CCN[C@@H]1C[C@H](N)[C@@H](O[C@H]2OC(CN)=CC[C@H]2N)[C@H](O)[C@H]1O[C@H]1OC[C@](C)(O)[C@H](NC)[C@H]1O.O=S(=O)(O)O.O=S(=O)(O)O.O=S(=O)(O)O.O=S(=O)(O)O.O=S(=O)(O)O [Netilmicin Sulfate],Fibrin % inhibition,[1]; [20],−6%
same,LPS % inhibition,"[2]; primary microglia HTS, LPS stimulation, increased cell size (>800 μm^2) as marker of activation",12%
same,Quadrant (FIG. 5b),[3]; [12],Q4
same,LPS % cell toxicity,[4]; [22],0%
same,Fibrin % cell toxicity,[5]; [23],1%
O=C(CCNNC(=O)c1ccncc1)NCc1ccccc1 [Nialamide],inhibition at 10 µM,[1]; [20],-6%
same,inhibition at 10 µM,[2]; [21],11%
same,Quadrant (FIG. 5b),[3]; [12],Q4
same,LPS % cell toxicity,[4]; [22],0%
same,Fibrin % cell toxicity,[5]; [23],1%
CCCOc1ccccc1-c1nc2nn[nH]c2c(=O)[nH]1 [Zaprinast],inhibition at 10 µM,[1]; [15],-34%
same,inhibition at 10 µM,[2]; [16],13%
same,Quadrant (FIG. 5b),[3]; [17],Q4
same,LPS % cell toxicity,[4]; [18],0%
same,Fibrin % cell toxicity,[5]; [19],1%
CC(=O)O[C@H]1C[C@@H]2CC[C@@H]3[C@H](CC[C@@]4(C)[C@H]3C[C@H]([N+]3(C)CCCCC3)[C@@H]4OC(C)=O)[C@@]2(C)C[C@@H]1N1CCCCC1 [Vecuronium Bromide],Fibrin % inhibition,[1]; [15],7%
same,LPS % inhibition,[2]; [16],23%
same,Quadrant (FIG. 5b),[3]; [17],Q4
same,LPS % cell toxicity,[4]; [18],0%
same,Fibrin % cell toxicity,[5]; [19],1%
O=C(O)c1nn(Cc2ccc(Cl)cc2Cl)c2ccccc12 [Lonidamine],inhibition at 10 µM,[1]; [10],7%
same,inhibition at 10 µM,[2]; [11],19%
same,Quadrant (FIG. 5b),[3]; [12],Q4
same,LPS % cell toxicity,[4]; [13],0%
same,Fibrin % cell toxicity,[5]; [14],1%
"CN1C(=O)CCS(=O)(=O)C1c1ccc(Cl)cc1 (centres unmarked) [Chlomezanone, Chlormezanone]",Fibrin % inhibition,[1]; [6],−52%
same,LPS % inhibition,[2]; [7],12%
same,Quadrant (FIG. 5b),"[3]; primary HTS, 10 μM",Q4
same,LPS % cell toxicity,[4]; [8],0%
same,Fibrin % cell toxicity,[5]; [9],1%
